Columns and labels:
H295R cells [1] = assay: In vitro drug dose-response, cell viability by CellTiter Glo; type: cell-based
Method: (§1) H295R cells were plated at a density of 1750 cells/well in 40 μl of medium and SW-13 cells were plated at 1250 cells/wells in 40 μl DMEM with 2% FBS in white 384-well plates and allowed to attach for 24 hours. […] Cell viability was normalized to cells alone and DMSO controls. […].
(§2) Dose response curves and IC50 values for cell survival in the presence of the drugs were calculated using Prism software (GraphPad) using the log(inhibitor) vs. response—4 parameter function which fits the following equation: Y=Bottom+(Top-Bottom)/[1+10̂(X−Log IC50)] where X is the logarithm of concentration and Y is the percent cell survival. Y starts at the top and goes to bottom with a sigmoid shape as X increases. All experiments were done at least three technical replicates and values are represented as averages with standard error.

SW-13 cells [2] = assay: as above; type: cell-based
Method: as §1, §2

CDKN1A (p21) transcript = assay: RT-qPCR of p21 mRNA levels; type: cell-based
Method: (§3) 6×10^5 SW-13 and 7.5×10^5 H295R cells were plated in 10 cm^2 dishes in 10 ml of media. […] Total RNA was extracted 24 hours later using the mirVana miRNA Isolation Kit (Ambion, Inc, Grand Island, N.Y.) as per the manufacturer's protocol.
(§4) Total RNA was reverse transcribed utilizing both random hexamer and oligo-dT primers and the RT^2 First Strand cDNA Synthesis Kit (SABiosciences, Valencia, Calif.). The resulting cDNA was amplified on the iQ5 Real-Time PCR Detection System (Bio-Rad Laboratories, Inc, Hercules, Calif.) using primer sets for TP53 (p53), CDKN1A (p21) and ACTB (β-actin) and RT^2 SYBR Green Master Mix (all from SABiosciences, Valencia, Calif.) and run according to manufacturer's instructions. Melting curve analysis was performed to evaluate primer set specificity. Fold difference relative to […], which was used as the reference gene, was calculated using the Pfaffl method taking into account reaction efficiencies.

H295R cells [3] = assay: Caspase 3/7 Glo assay for apoptosis; type: cell-based; settings: for induction of apoptosis (caspase 3/7 activity), single compound: H295R (wild type p53), 8, 16, 24 and 48 hours
Method: (§5) ACC cell lines were plated and 24 hours later, 0.5 μM, 1 μM, 2.5 μM, and 5 μM of doxorubicin was added to the cultures. […] Data was normalized to cells alone, then to vehicle alone and expressed as a percentage of vehicle alone. […] H295R cells were plated at a density of 1750 cells/well in 40 μl of medium and SW-13 was plated at 1250 cells/wells in 40 μl DMEM with 2% FBS. […] Percent caspase 3/7 activity was normalized to cells and to DMSO control. […] […] Doxorubicin (Tocris, Minneapolis, Minn.) was used as a positive control for induction of apoptosis.

SW-13 cells [4] = assay: Caspase 3/7 Glo assay for apoptosis; type: cell-based; settings: for induction of apoptosis (caspase 3/7 activity), single compound: SW-13 (mutant p53), 8, 16, 24 and 48 hours
Method: as §5

MDM2 protein = assay: Western blot of MDM2 protein after BI-2536; type: cell-based; settings: H295R and SW-13; BI-2536 24 hours
Method: 6×10^5 SW-13 and 7.5×10^5 H295R cells were plated in 10 cm^2 dishes in 10 ml of media. […] Cells were lysed with RIPA buffer with protease and phosphatase inhibitors, and the resulting protein lysate quantitated by BCA (Pierce, Thermo Scientific, Pittsburgh, Pa.). Thirty micrograms of protein were loaded onto 4-12% Bis-Tris pre-cast gels (Invitrogen, Carlsbad, Calif.) and allowed to separate at 150V for 1 hour. The gels were then transferred onto PVDF membranes for 7 minutes using the iBLOT western transfer system (Invitrogen, Carlsbad, Calif.) at room temperature. […] The membranes were developed using the SuperSignal West Femto Chemiluminescent Substrate (Pierce, Thermo Scientific, Pittsburgh, Pa.) and were visualized and quantitated with the Bio Spectrum 500 Imaging System (UVP, Cambridge, UK).
The blots were processed as described above for the detection of β-Actin (AbCam, Cambridge, Mass.) in 5% blocking solution which was used as an internal loading control. […] The actin membranes were also detected using the SuperSignal West Femto Chemiluminescent Substrate (Pierce, Thermo Scientific, Pittsburgh, Pa.) and were visualized and quantitated with the Bio Spectrum 500 Imaging System (UVP, Cambridge, UK) and relative amounts of PLK-1, MDM2 and p53 protein are reported relative to β-Actin. […]

TP53 (p53) transcript = assay: RT-qPCR of p53 mRNA levels; type: cell-based; settings: either of the two cell lines (H295R, SW-13)
Method: as §3, §4

BD140 lines = assay: Caspase 3/7 Glo assay for apoptosis; type: cell-based
Method: ACC cell lines SW-13 and H295R were obtained from ATCC and authenticated by STR analysis on Aug. 24, 2012. BD140 lines (A-C) represent distinct subclones established from the tumor of ACC140. BD167 was also established. They are positive for DHEAS expression, confirming adrenocortical origin. SW-13 and the […] were grown in DMEM supplemented with 10% FBS, 1% L-glutamine, 1% […] (ITS), and penicillin-streptomycin. BD140-A, BD140-B and BD167 were grown in RPMI supplemented with 10% FBS, 1% L-glutamine, 1% ITS, and penicillin-streptomycin. H295R was grown in DMEM:F12 supplemented with 2.5% NuSerum, 1% L-glutamine, 1% ITS, and penicillin-streptomycin. All cells lines were grown at 37° C. in a 5% CO2 atmosphere.
ACC cell lines were plated and 24 hours later, 0.5 μM, 1 μM, 2.5 μM, and 5 μM of doxorubicin was added to the cultures. The activity of caspases 3 and 7 was assessed using Caspase 3/7 Glo (Promega, Madison, Wis.) at 8, 24, and 48 hours after drug addition according to manufacturer's instructions. Data was normalized to cells alone, then to vehicle alone and expressed as a percentage of vehicle alone.

adrenocortical carcinoma = settings: cited from earlier work

CC[C@@H]1C(=O)N(C)c2cnc(Nc3ccc(C(=O)NC4CCN(C)CC4)cc3OC)nc2N1C1CCCC1 [BI-2536]
IC10 (cell viability) (H295R cells [1]): 0.00565 µM
IC10 (cell viability) (SW-13 cells [2]): 0.0222 µM
transcription of CDKN1A (p21) (CDKN1A (p21) transcript; H295R, wild type p53): general trend of increased transcription
amount of CDKN1A message (CDKN1A (p21) transcript; SW-13, mutant p53): reduced
induction of apoptosis (caspase 3/7 activity), single compound (H295R cells [3]): robust induction of apoptosis
time of maximum induction of apoptosis (SW-13 cells [4]; SW-13): 48 h
induction of apoptosis (caspase 3/7 activity), single compound (SW-13 cells [4]): robust induction of apoptosis
levels of the MDM2 protein (MDM2 protein): does not affect
levels of p53 transcript (TP53 (p53) transcript): did not significantly affect

COc1cccc2c1C(=O)c1c(O)c3c(c(O)c1C2=O)C[C@@](O)(C(=O)CO)C[C@@H]3O[C@H]1C[C@H](N)[C@H](O)[C@H](C)O1 [doxorubicin]
induction of caspase 3/7 activity (BD140 lines; 0.5 μM and 1 μM): not seen until 48 hours
induction of caspase 3/7 activity (BD140 lines; 2.5 μM and 5 μM, by 24 hours): moderate induction
caspase 3/7 activation (apoptosis) following doxorubicin exposure (H295R cells [3]; H295R, 0.5-5 μM, 8, 24, 48 hours): delayed
time to significant induction of caspase 3/7 activation following doxorubicin exposure (SW-13 cells [4]; SW-13, 0.5-5 μM): ≤ 8 h

Clc1ccc(C(c2ccccc2Cl)C(Cl)Cl)cc1 (stereo not shown) [mitotane]
survival of patients whose tumors respond (adrenocortical carcinoma; improved from 14 months): 50 months
response rate (adrenocortical carcinoma; mitotane as a single agent): 23%
tolerability (adrenocortical carcinoma; most patients, severe toxic side effects): poorly tolerated

COc1ccc(C2=N[C@@H](c3ccc(Cl)cc3)[C@@H](c3ccc(Cl)cc3)N2C(=O)N2CCNC(=O)C2)c(OC(C)C)c1 [nutlin-3]
cell viability (in words) (H295R cells [1]): decreased
IC50 (H295R cells [1]; CellTiter Glo, combination: BI-2536 kept constant at IC25, nutlin-3 serially diluted): 12.8 µM
cell viability (in words) (SW-13 cells [2]): decreased
IC50 (SW-13 cells [2]; CellTiter Glo, 96 hours, combination: BI-2536 kept constant at IC25, nutlin-3 serially diluted): 19.8 µM
induction of apoptosis (caspase 3/7 activity), single compound (H295R cells [3]): restored the apoptotic response
induction of apoptosis (caspase 3/7 activity), single compound (SW-13 cells [4]): small increase in apoptosis

From patent publication US20160038498A1, “METHODS FOR THE TREATMENT OF CANCER” (The Translational Genomics Research Institute, priority 2013, published 2016)
